Legend:
Assay type in all cases: biochemical
Cc XylC = molecular target: T1, Cc XylC (Caulobacter vibrioides, UniProt Q9A9Z1); assay: CD ([…] nm) and 1H-NMR lactone ring-opening assay; settings: CD: 1 mM lactone, 10 mM Tris-HCl pH 6-8, 25 °C; NMR: 2 mM lactone, pH 6.8, 22 °C, 100 µM metal ions or EDTA
T1 construct: full length, untagged (C-terminal Strep-tag II removed), synthetic codon-optimised gene in E. coli BL21(DE3), DEAE purified, mainly monomer

Ec FucO = molecular target: T2, Ec FucO (Escherichia coli, UniProt P0A9S1); assay: purified enzyme within 4-enzyme cascade, NADH oxidation at […] nm; settings: glycolaldehyde formed by Ec YagE from 1 mM xylonolactone via cascade; 2 mM NADH, 50 mM Tris-HCl pH 7.0, 22 °C
T2 sequence (P0A9S1 1-382): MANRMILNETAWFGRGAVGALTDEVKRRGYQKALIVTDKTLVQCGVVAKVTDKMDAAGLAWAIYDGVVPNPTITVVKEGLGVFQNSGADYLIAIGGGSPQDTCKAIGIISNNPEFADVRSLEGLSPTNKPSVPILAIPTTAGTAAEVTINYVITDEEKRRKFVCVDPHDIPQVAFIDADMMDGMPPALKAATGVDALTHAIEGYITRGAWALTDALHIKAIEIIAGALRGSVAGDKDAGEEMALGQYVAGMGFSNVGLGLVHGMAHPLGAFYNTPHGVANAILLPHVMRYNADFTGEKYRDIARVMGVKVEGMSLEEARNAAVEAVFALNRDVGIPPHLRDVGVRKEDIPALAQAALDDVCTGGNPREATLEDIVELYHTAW

Ab AraE = Ab AraE (Azospirillum brasilense, UniProt Q1JUP4); assay: NADH formation at […] nm, steady-state kinetics; settings: 50 mM Tris-HCl pH 7.0, 2 mM NAD+, 1 mM DTT, glycolaldehyde 0-2 mM
Ec AldA = Ec AldA (Escherichia coli, UniProt P25553); assay: NADH formation at […] nm, steady-state kinetics; settings: 50 mM Tris-HCl pH 7.0, 2 mM NAD+, 1 mM DTT, glycolaldehyde 0-2 mM
Sequence of Ec AldA (P25553 whole entry): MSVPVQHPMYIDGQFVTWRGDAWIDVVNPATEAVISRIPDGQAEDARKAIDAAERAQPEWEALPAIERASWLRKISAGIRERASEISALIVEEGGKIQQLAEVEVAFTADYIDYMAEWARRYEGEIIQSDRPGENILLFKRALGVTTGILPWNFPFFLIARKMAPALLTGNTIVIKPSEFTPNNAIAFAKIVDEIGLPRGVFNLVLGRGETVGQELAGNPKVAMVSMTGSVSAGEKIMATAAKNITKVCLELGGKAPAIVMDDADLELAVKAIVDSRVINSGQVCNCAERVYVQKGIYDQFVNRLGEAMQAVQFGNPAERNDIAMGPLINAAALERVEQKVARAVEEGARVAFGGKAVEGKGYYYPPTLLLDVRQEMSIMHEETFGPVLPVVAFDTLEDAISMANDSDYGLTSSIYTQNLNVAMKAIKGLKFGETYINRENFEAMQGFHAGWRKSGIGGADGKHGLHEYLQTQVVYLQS

T1 sequence (Q9A9Z1 whole entry): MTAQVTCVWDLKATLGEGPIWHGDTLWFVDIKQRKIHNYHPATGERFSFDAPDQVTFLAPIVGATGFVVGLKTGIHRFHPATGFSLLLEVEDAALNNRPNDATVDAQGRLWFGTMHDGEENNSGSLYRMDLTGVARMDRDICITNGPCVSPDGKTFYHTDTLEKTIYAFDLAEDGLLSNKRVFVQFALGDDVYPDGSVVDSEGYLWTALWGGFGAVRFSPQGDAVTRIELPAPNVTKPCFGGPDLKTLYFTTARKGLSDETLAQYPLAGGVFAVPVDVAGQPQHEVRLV
Sequence of Ab AraE (Q1JUP4 whole entry): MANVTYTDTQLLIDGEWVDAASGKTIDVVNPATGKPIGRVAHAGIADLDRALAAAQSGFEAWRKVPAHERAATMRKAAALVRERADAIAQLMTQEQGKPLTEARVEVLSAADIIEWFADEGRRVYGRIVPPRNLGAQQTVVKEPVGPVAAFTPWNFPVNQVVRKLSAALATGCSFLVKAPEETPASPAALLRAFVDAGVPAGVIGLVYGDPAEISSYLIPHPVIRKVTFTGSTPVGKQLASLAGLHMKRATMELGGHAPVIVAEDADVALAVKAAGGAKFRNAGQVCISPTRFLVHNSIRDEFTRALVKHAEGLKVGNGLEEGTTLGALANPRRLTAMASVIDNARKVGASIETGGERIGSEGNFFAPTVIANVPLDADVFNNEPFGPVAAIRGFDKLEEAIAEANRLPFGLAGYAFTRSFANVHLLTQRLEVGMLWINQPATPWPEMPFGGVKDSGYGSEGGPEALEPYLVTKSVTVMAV

SMILES | CD (220 nm) and 1H-NMR lactone ring-opening assay (Cc XylC) | purified enzyme within 4-enzyme cascade, NADH oxidation at 340 nm (Ec FucO) | NADH formation at 340 nm, steady-state kinetics (Ab AraE) | NADH formation at 340 nm, steady-state kinetics (Ec AldA)
O=C1O[C@H](CO)[C@H](O)[C@H]1O [D-xylono-1,4-lactone] | Cc XylC was able to open the xylonolactone without addition of any metal |  |  | 
NC(=O)C1=CN([C@@H]2O[C@H](COP(=O)(O)OP(=O)(O)OC[C@H]3O[C@@H](n4cnc5c(N)ncnc54)[C@H](O)[C@@H]3O)[C@@H](O)[C@H]2O)C=CC1 [NADH] |  | the production of ethylene glycol was followed through generation of NAD^+ |  | 
O=CCO [glycolaldehyde] |  | an increase of the enzyme concentration resulted in an increase in the production levels | we compare the glycolaldehyde dependent activity of Ec AldA and Ab AraE | we compare the glycolaldehyde dependent activity of Ec AldA and Ab AraE
